Reference: patent US20120058989A1, “ANTIBACTERIAL FLUOROQUINOLONE ANALOGS” (Achaogen, Inc., priority 2008, published 2012)
≈ marks a conversion by molar mass, not a printed value. Where two headings read alike, the source gives them in different places.

Columns and labels:
Assay in all cases: MIC, CLSI broth microdilution
Format in all cases: cell-based
[1] = system: A. baumannii AABA1065 (Fluoroquinolone-susceptible); conditions: Acinetobacter baumannii
Procedure, shortened: (§1)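 Broth microdilution per CLSI M7-A7, with serial two-fold compound dilutions in Mueller Hinton Broth mixed 1:1 with inoculum. Colonies from a previous-day agar plate were suspended in saline to a final 5×10^5 CFU/mL. Plates were incubated 20 hours at 35° C. in ambient air.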

[2] = system: S. pneumoniae ASPN001 (Fluoroquinolone-susceptible, ATCC49619); conditions: Streptococcus pneumoniae
Procedure, shortened: as §1

[3] = system: S. aureus ASAU001 (Fluoroquinolone-susceptible, ATCC29213); conditions: Staphylococcus aureus
Procedure, shortened: as §1

[4] = system: S. aureus ASAU1033 (Fluoroquinolone-resistant); conditions: Staphylococcus aureus, Table 3
Procedure, shortened: as §1

[5] = system: A. baumannii AABA1020 (Fluoroquinolone-resistant); conditions: Acinetobacter baumannii, Table 3
Procedure, shortened: as §1

[6] = system: E. coli AECO001 (Fluoroquinolone susceptible, ATCC25922); conditions: Escherichia coli
Procedure, shortened: as §1

[7] = system: S. pneumoniae ASPN002 (Fluoroquinolone-susceptible, ATCC10813); conditions: Streptococcus pneumoniae, Table 3
Procedure, shortened: as §1

[8] = system: P. aeruginosa APAE054 (Fluoroquinolone-resistant); conditions: Pseudomonas aeruginosa
Procedure, shortened: as §1

[9] = system: S. aureus ASAU002 (Fluoroquinolone-susceptible, ATCC33591 (MRSA)); conditions: Staphylococcus aureus, Table 3
Procedure, shortened: as §1

[10] = system: S. pneumoniae ASPN1018 (Fluoroquinolone-resistant); conditions: Streptococcus pneumoniae, Table 3
Procedure, shortened: as §1

[11] = system: E. coli AECO002 (Fluoroquinolone susceptible); conditions: Escherichia coli, Table 3
Procedure, shortened: as §1

[12] = system: A. baumannii AABA1009 (Fluoroquinolone-resistant); conditions: Acinetobacter baumannii, Table 2, read-out: MIC AABA 1009
Procedure, shortened: as §1

[13] = system: P. aeruginosa APAE002 (Fluoroquinolone susceptible); conditions: Pseudomonas aeruginosa, Table 3
Procedure, shortened: as §1

[14] = system: E. coli AECO066 (Fluoroquinolone-resistant); conditions: Escherichia coli
Procedure, shortened: as §1

[15] = system: S. pneumoniae ASPN1027 (Fluoroquinolone-resistant); conditions: Streptococcus pneumoniae
Procedure, shortened: as §1

[16] = system: E. coli AECO086 (Fluoroquinolone-resistant); conditions: Escherichia coli, Table 3
Procedure, shortened: as §1

[17] = system: P. aeruginosa APAE001 (Fluoroquinolone-susceptible, ATCC27853); conditions: Pseudomonas aeruginosa
Procedure, shortened: as §1

[18] = system: S. aureus ASAU1031 (Fluoroquinolone-resistant); conditions: Staphylococcus aureus
Procedure, shortened: as §1

[19] = Table 2, read-out: MIC AABA 1065
[20] = Table 2, read-out: MIC ASPN 001
[21] = Table 2, read-out: MIC ASAU 001
[22] = Table 2, 35° C., 20 hours, read-out: MIC AECO 001
[23] = Table 2, read-out: MIC APAE 054
[24] = Table 2, read-out: MIC AECO 066
[25] = Table 2, read-out: MIC ASPN 1027
[26] = Table 2, read-out: MIC APAE 001
[27] = Table 2, read-out: MIC ASAU 1031

| SMILES | MIC [1, 19] [mg/L] | MIC ([1]; Table 3) [mg/L] | MIC [2, 20] [mg/L] | MIC ([2]; Table 3) [mg/L] | MIC [3, 21] [mg/L] | MIC ([3]; Table 3) [mg/L] | MIC [4] [mg/L] | MIC [5] [mg/L] | MIC [6, 22] [mg/L] | MIC ([6]; Table 3) [mg/L] | MIC [7] [mg/L] | MIC [8, 23] [mg/L] | MIC ([8]; Table 3) [mg/L] | MIC [9] [mg/L] | MIC [10] [mg/L] | MIC [11] [mg/L] | MIC [12] [mg/L] | MIC [13] [mg/L] | MIC [14, 24] [mg/L] | MIC ([14]; Table 3) [mg/L] | also measured |
| --- | --- | --- | --- | --- | --- | --- | --- | --- | --- | --- | --- | --- | --- | --- | --- | --- | --- | --- | --- | --- | --- |
| C[C@H]1COc2c(N3CCN(C)CC3)c(F)cc3c(=O)c(C(=O)O)cn1c23 [Levofloxacin, reference compound] | ≤ 1 | < 1 | 1 to 8 (≈ 2.77 to 22.1 µM) | 1 to 2 (≈ 2.77 to 5.53 µM) | ≤ 1 | < 1 | > 8 | > 8 | ≤ 1 | < 1 | 1 to 2 (≈ 2.77 to 5.53 µM) | > 8 | > 8 | < 1 | > 8 | < 1 | > 8 | < 1 | > 8 | > 8 | MIC [15, 25]: > 8 mg/L; MIC ([15]; Table 3): > 8 mg/L; MIC [16]: > 8 mg/L; MIC [17, 26]: 1 to 8 mg/L (≈ 2.77 to 22.1 µM); MIC ([17]; Table 3): 1 to 2 mg/L (≈ 2.77 to 5.53 µM); MIC [18, 27]: > 8 mg/L; MIC ([18]; Table 3): > 8 mg/L |
| COc1c(N2C[C@@H]3CCCN[C@@H]3C2)c(F)cc2c(=O)c(C(=O)O)cn(C3CC3)c12 [Moxifloxacin, reference compound] | ≤ 1 | < 1 | ≤ 1 | < 1 | ≤ 1 | < 1 | > 8 | > 8 | ≤ 1 | < 1 | < 1 | > 8 | > 8 | < 1 | 2 to 8 (≈ 4.98 to 19.9 µM) | < 1 | > 8 | 1 to 2 (≈ 2.49 to 4.98 µM) | > 8 | > 8 | MIC [15, 25]: 1 to 8 mg/L (≈ 2.49 to 19.9 µM); MIC ([15]; Table 3): 2 to 8 mg/L (≈ 4.98 to 19.9 µM); MIC [16]: > 8 mg/L; MIC [17, 26]: 1 to 8 mg/L (≈ 2.49 to 19.9 µM); MIC ([17]; Table 3): 1 to 2 mg/L (≈ 2.49 to 4.98 µM); MIC [18, 27]: 1 to 8 mg/L (≈ 2.49 to 19.9 µM); MIC ([18]; Table 3): 2 to 8 mg/L (≈ 4.98 to 19.9 µM) |
